According to patent US4894458A, “Quinolonecarboxylic acid derivatives and their preparation” (Kyorin Pharmaceutical Co., Ltd., priority 1986, dated 1990):
Converted amounts (≈) assume the structure as drawn. Like-named read-outs stand apart in the source and are kept apart here.

Experiments:
Format in all cases: cell-based
[1] = system: Bacillus subtilis PCI 219; assay: In vitro antibacterial activity (aerobic bacteria), MIC
[2] = system: Acinetobacter anitratus IID 876; assay: as above; conditions: Acinetobacter calcoaceticus, IID876, Gram -, 10^6 cells/ml, read-out: MIC
Experimental: (§1) Minimal inhibitory concentrations (MICs) were determined in accordance with the method recommended by Japan Society of Chemotherapy.

[3] = system: E. coli ATCC 10536; assay: as above; conditions: Escherichia coli, ATCC10536, Gram -, 10^6 cells/ml
Experimental: as §1

[4] = system: K. pneumoniae 1-220S; assay: as above; conditions: Klebsiella pneumoniae, 1220S, Gram -, 10^6 cells/ml
Experimental: as §1

[5] = system: Morganella morganii IID 602; assay: as above; conditions: Morganella morganii, IID602, Gram -, 10^6 cells/ml, read-out: MIC
Experimental: as §1

[6] = system: P. mirabilis IID 994; assay: as above; conditions: Proteus mirabilis, IID994, Gram -, 10^6 cells/ml
Experimental: as §1

[7] = system: Proteus vulgaris IFO 3167; assay: as above; conditions: IFO3167, Gram -, 10^6 cells/ml
Experimental: as §1

[8] = system: Pseudomonas aeruginosa V-1; assay: as above; conditions: Pseudomonas aeruginosa, V1, aerobic; Gram -; 10^6 cells/ml; read-out: MIC
Experimental: as §1

[9] = system: S. aureus IID 670 (Terajima); assay: as above; conditions: Staphylococcus aureus, IID670, Gram +, 10^6 cells/ml
Experimental: as §1

[10] = system: S. epidermidis IID 866; assay: as above; conditions: Staphylococcus epidermidis, IID866, Gram +, 10^6 cells/ml
Experimental: as §1

[11] = system: Serratia marcescens IID 618; assay: as above; conditions: IID618, Gram -, 10^6 cells/ml
Experimental: as §1

[12] = system: Shigella sonnei IID 969; assay: as above; conditions: IID969, Gram -, 10^6 cells/ml
Experimental: as §1

[13] = system: Staphylococcus aureus 209 P; assay: as above; conditions: Gram +, 10^6 cells/ml
Experimental: as §1

[14] = system: Escherichia coli NIHJ JC-2; assay: as above; conditions: NIHJJC2, aerobic, Gram -, 10^6 cells/ml
[15] = system: Klebsiella pneumoniae KY(GN)6445; assay: as above
[16] = system: Enterobacter cloacae IID 977; assay: as above
[17] = system: Citrobacter freundii IID 976; assay: as above; conditions: Citrobacter freundii
[18] = system: Salmonella enteritidis IID 604; assay: as above; conditions: Salmonella enterica
[19] = system: P. aeruginosa IFO 12689; assay: as above; conditions: Pseudomonas aeruginosa, IFO12689; aerobic; Gram -; 10^6 cells/ml; read-out: MIC
[20] = system: P. aeruginosa IID 1210; assay: as above; conditions: Pseudomonas aeruginosa, IID1210, aerobic, Gram -, 10^6 cells/ml
[21] = system: P. cepacia GIFU 518; assay: as above; conditions: Burkholderia cepacia, GIFU518; aerobic; Gram -; 10^6 cells/ml; read-out: MIC
[22] = system: P. maltophilia GIFU 2491; assay: as above; conditions: Stenotrophomonas maltophilia, GIFU2491; aerobic; Gram -; 10^6 cells/ml; read-out: MIC
[23] = system: Yersinia enterocolitica IID 981; assay: microbe, parasite or virus in culture; conditions: IID981
[24] = system: Alcaligenes faecalis 0114002; assay: In vitro antibacterial activity (aerobic bacteria), MIC; conditions: Alcaligenes faecalis, 0114002, aerobic, Gram -, 10^6 cells/ml
[25] = system: Bacteroides fragilis GM 7000; assay: In vitro antibacterial activity (anaerobic bacteria), MIC
[26] = system: B. fragilis 0558; assay: as above; conditions: Bacteroides fragilis, anaerobic, Gram -, 10^6 cells/ml, read-out: MIC
[27] = system: B. fragilis 25285; assay: as above; conditions: Bacteroides fragilis, anaerobic, Gram -, 10^6 cells/ml, read-out: MIC
[28] = system: B. distasonis 8503; assay: as above; conditions: Parabacteroides distasonis, Gram -, 10^6 cells/ml, read-out: MIC
[29] = system: B. thetaiotaomicron (0661); assay: as above; conditions: Bacteroides thetaiotaomicron; anaerobic; Gram -; 10^6 cells/ml; read-out: MIC
[30] = system: Fusobacterium necrophorum S-45; assay: as above; conditions: S45, anaerobic, Gram -, 10^6 cells/ml, read-out: MIC
[31] = system: F. varium KYA 8501; assay: as above; conditions: Fusobacterium varium, KYA8501; anaerobic; Gram -; 10^6 cells/ml; read-out: MIC
[32] = system: Eubacterium lentum GAI 5242; assay: as above; conditions: Eggerthella lenta, GAI5242
[33] = system: Propionibacterium acens 11828; assay: as above; conditions: anaerobic, Gram +, 10^6 cells/ml, read-out: MIC
[34] = system: Peptococcus magnus KY 017; assay: as above; conditions: Finegoldia magna, KY017, Gram +, 10^6 cells/ml, read-out: MIC
Experimental: as §1

[35] = system: Clostridium difficile I-E; assay: as above; conditions: Clostridioides difficile; anaerobic; Gram +; 10^6 cells/ml; read-out: MIC
[36] = system: C. perfringens KYA 13123; assay: microbe, parasite or virus in culture; conditions: Clostridium perfringens, KYA13123
[37] = system: C. ramosum; assay: In vitro antibacterial activity (anaerobic bacteria), MIC; conditions: Thomasclavelia ramosa
[38] = system: Peptostreptococcus anaerobius KYA 27337; assay: as above; conditions: KYA27337, anaerobic, Gram +, 10^6 cells/ml, read-out: MIC
[39] = system: Pst micros UPI 5464-1; assay: microbe, parasite or virus in culture; conditions: anaerobic, Gram +, 10^6 cells/ml
[40] = system: Veillonella parvula KYA 10790; assay: In vitro antibacterial activity (anaerobic bacteria), MIC
[41] = aerobic, Gram -, 10^6 cells/ml, read-out: MIC
[42] = anaerobic, Gram +, 10^6 cells/ml, read-out: MIC

SMILES | MIC [2] | MIC [3] | MIC [4] | MIC [5] | MIC [6] | MIC [7] | MIC [8] | MIC [9] | MIC [10] | MIC [11] | MIC [12] | MIC [13] | MIC [19] | MIC [21] | MIC [22] | MIC [23] | MIC [26] | MIC [27] | MIC [28] | MIC [29] | other results
Cc1c(N2CCC(N)C2)c(F)cc2c(=O)c(C(=O)O)cn(C3CC3)c12 (centres unmarked) [Exp. 18, 7-(3-Amino-1-pyrrolidinyl)-1-cyclopropyl-6-fluoro-1,4-dihydro-8-methyl-4-oxo-3-quinolinecarboxylic acid] | 0.05 µg/mL (≈ 0.145 µM) | 0.0125 µg/mL (≈ 0.0362 µM) | 0.05 µg/mL (≈ 0.145 µM) | 0.05 µg/mL (≈ 0.145 µM) | 0.0125 µg/mL (≈ 0.0362 µM) | 0.0125 µg/mL (≈ 0.0362 µM) | 0.05 µg/mL (≈ 0.145 µM) | 0.05 µg/mL (≈ 0.145 µM) | 0.05 µg/mL (≈ 0.145 µM) | 0.05 µg/mL (≈ 0.145 µM) | 0.0125 µg/mL (≈ 0.0362 µM) | 0.05 µg/mL (≈ 0.145 µM) | 0.2 µg/mL (≈ 0.579 µM) | 0.2 µg/mL (≈ 0.579 µM) | 0.1 µg/mL (≈ 0.29 µM) | 0.05 µg/mL (≈ 0.145 µM) | 0.1 µg/mL (≈ 0.29 µM) | 0.2 µg/mL (≈ 0.579 µM) | 0.39 µg/mL (≈ 1.13 µM) | 0.78 µg/mL (≈ 2.26 µM) | MIC ([1]; PCI219, aerobic, Gram +, 10^6 cells/ml, read-out: MIC): 0.025 µg/mL (≈ 0.0724 µM); MIC ([14]; read-out: MIC): ≤ 0.0032 µg/mL; MIC [15, 41]: 0.025 µg/mL (≈ 0.0724 µM); MIC ([16]; IID977, aerobic, Gram -, 10^6 cells/ml, read-out: MIC): 0.025 µg/mL (≈ 0.0724 µM); MIC ([17]; IID976, aerobic, Gram -, 10^6 cells/ml, read-out: MIC): 0.025 µg/mL (≈ 0.0724 µM); MIC [18, 41]: 0.025 µg/mL (≈ 0.0724 µM); MIC ([20]; read-out: MIC): 0.2 µg/mL (≈ 0.579 µM); MIC ([24]; read-out: MIC): 0.1 µg/mL (≈ 0.29 µM); MIC ([25]; GM7000, anaerobic, Gram -, 10^6 cells/ml, read-out: MIC): 0.2 µg/mL (≈ 0.579 µM); MIC [30]: 0.1 µg/mL (≈ 0.29 µM); MIC [31]: 0.78 µg/mL (≈ 2.26 µM); MIC [32, 42]: 0.2 µg/mL (≈ 0.579 µM); MIC [33]: 0.78 µg/mL (≈ 2.26 µM); MIC [34]: 0.05 µg/mL (≈ 0.145 µM); MIC [35]: 0.78 µg/mL (≈ 2.26 µM); MIC [36]: 0.05 µg/mL (≈ 0.145 µM); MIC [37]: 1.56 µg/mL (≈ 4.52 µM); MIC [38]: 0.1 µg/mL (≈ 0.29 µM); MIC ([39]; read-out: MIC): 0.1 µg/mL (≈ 0.29 µM); MIC ([40]; KYA10790, anaerobic, Gram -, 10^6 cells/ml, read-out: MIC): 0.1 µg/mL (≈ 0.29 µM)
CCn1cc(C(=O)O)c(=O)c2cc(F)c(N3CCC(N)C3)c(C)c21 (centres unmarked) [Exp. 25, 7-(3-Amino-1-pyrrolidinyl)-1-ethyl-6-fluoro-1,4-dihydro-8-methyl-4-oxo-3-quinolinecarboxylic acid] | 0.78 µg/mL (≈ 2.34 µM) | 0.025 µg/mL (≈ 0.075 µM) | 0.1 µg/mL (≈ 0.3 µM) | 0.2 µg/mL (≈ 0.6 µM) | 0.05 µg/mL (≈ 0.15 µM) | 0.0125 µg/mL (≈ 0.0375 µM) | 0.39 µg/mL (≈ 1.17 µM) | 0.2 µg/mL (≈ 0.6 µM) | 0.2 µg/mL (≈ 0.6 µM) | 0.05 µg/mL (≈ 0.15 µM) | 0.05 µg/mL (≈ 0.15 µM) | 0.2 µg/mL (≈ 0.6 µM) | 1.56 µg/mL (≈ 4.68 µM) | 1.56 µg/mL (≈ 4.68 µM) | 1.56 µg/mL (≈ 4.68 µM) | 0.1 µg/mL (≈ 0.3 µM) | 1.56 µg/mL (≈ 4.68 µM) | 1.56 µg/mL (≈ 4.68 µM) | 6.25 µg/mL (≈ 18.7 µM) | 6.25 µg/mL (≈ 18.7 µM) | MIC ([1]; PCI219): 0.1 µg/mL (≈ 0.3 µM); MIC [14]: 0.0125 µg/mL (≈ 0.0375 µM); MIC [15]: 0.1 µg/mL (≈ 0.3 µM); MIC ([16]; IID977): 0.1 µg/mL (≈ 0.3 µM); MIC ([17]; IID976): 0.05 µg/mL (≈ 0.15 µM); MIC [18]: 0.05 µg/mL (≈ 0.15 µM); MIC [20]: 0.78 µg/mL (≈ 2.34 µM); MIC [24]: 0.78 µg/mL (≈ 2.34 µM); MIC ([25]; GM7000): 3.13 µg/mL (≈ 9.39 µM); MIC [30]: 1.56 µg/mL (≈ 4.68 µM); MIC [31]: 6.25 µg/mL (≈ 18.7 µM); MIC [32]: 0.78 µg/mL (≈ 2.34 µM); MIC [33]: 12.5 µg/mL (≈ 37.5 µM); MIC [34]: 0.39 µg/mL (≈ 1.17 µM); MIC [35]: 6.25 µg/mL (≈ 18.7 µM); MIC [36]: 0.78 µg/mL (≈ 2.34 µM); MIC [37, 42]: 12.5 µg/mL (≈ 37.5 µM); MIC [38]: 1.56 µg/mL (≈ 4.68 µM); MIC [39]: 0.39 µg/mL (≈ 1.17 µM); MIC ([40]; KYA10790): 0.39 µg/mL (≈ 1.17 µM)
